A word on the GI50: it is the concentration giving 50% growth inhibition. In general, TGI refers to the concentration giving total growth inhibition. Higher therefore signals lower sensitivity of the cells.

“And” between values parts separate entries of the source, which are not always exact repeats. Equal values may be shown once.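 Step 1: Grow cells in 96-well plates. Step 2: Expose to compound for 48 hours at 5 concentrations. Step 3: Interpolate endpoints linearly; if unreached, use highest concentration. At the GI50, growth is halved. The concentration for full growth arrest is given as TGI.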

Among the test systems are HL-60(TB) leukemia; HOP-62 NSCLC; KM12 colon; MDA-MB-435; NCI-H460 lung; NCI-H522 lung; OVCAR-8 ovarian; SK-OV-3 ovarian; T-47D breast; MCF7 breast.
Assay in all cases: DTP human tumour cell line panel, 48 h

With `Cc1c(-c2ccnc(N)n2)c2c(n1-c1ccccc1)C(=O)c1ccccc1C2=O`, the GI50 with HL-60(TB) leukemia is 7830 nM; in the test on HOP-62 NSCLC, 6.61 µM; with KM12 colon, 16800 nM; in the test on MDA-MB-435 it was 25200 nM; with NCI-H460 lung, 17.6 µM; in the test on NCI-H522 lung it was 13200 nM. Moreover, the GI50 is 17.2 µM in the test with OVCAR-8 ovarian, 39.3 µM in the test on SK-OV-3 ovarian and 51400 nM in the test on T-47D breast. In addition, the total growth inhibition concentration (TGI) turned out to be 30.4 µM with HL-60(TB) leukemia; 37.6 µM in the test with HOP-62 NSCLC; 45.8 µM in the test with KM12 colon; 67.3 µM in the test on MDA-MB-435; 60 µM with NCI-H460 lung; 37.2 µM in the test on NCI-H522 lung. Further, the TGI in the test on OVCAR-8 ovarian, in the test with SK-OV-3 ovarian and in the test with T-47D breast was over 100 µM in each case.
As to `CCCCCCCC(=O)O[C@H]1[C@H]2[C@@H](CC1(C)C)C(=O)[C@]13O[C@H]1C(=O)[C@]1(CO1)[C@]23C`, the GI50 in the test on HL-60(TB) leukemia was 381 nM; in the test with HOP-62 NSCLC it was 19.5 µM; in the test with KM12 colon, 19000 nM; with MCF7 breast it was 4990 nM; with NCI-H460 lung, 20 µM; in the test with OVCAR-8 ovarian it was 8.06 µM. For the same compound, in the test with SK-OV-3 ovarian, the GI50 was 20.7 µM. The total growth inhibition concentration (TGI) in the test with HL-60(TB) leukemia is 4.57 µM and 2.04 µM; with HOP-62 NSCLC it was 38.9 µM and 40.2 µM; with KM12 colon, 40.3 µM and 21.5 µM; in the test on MCF7 breast it was 19.4 µM and 10.5 µM; in the test on MDA-MB-435 it was 75 µM; with NCI-H460 lung, 42.6 µM and 12.8 µM. The TGI with NCI-H522 lung was 2.9 µM and 3.85 µM; in the test with OVCAR-8 ovarian, 24.5 µM and 8.05 µM; with SK-OV-3 ovarian it was 44.6 µM and 61.9 µM.
For `c1ccc2c(Nc3ccc4c(c3)OCO4)c3ccoc3nc2c1`, the GI50 in the test on HOP-62 NSCLC is 15.4 µM; in the test with KM12 colon, 14200 nM; in the test on MCF7 breast it was 12600 nM; in the test with MDA-MB-435, 3970 nM; with NCI-H460 lung, 16.5 µM; with NCI-H522 lung, 27200 nM. The GI50 in the test with OVCAR-8 ovarian was 12.6 µM; with SK-OV-3 ovarian, 22.7 µM; in the test on T-47D breast, 29300 nM. Moreover, the TGI with HOP-62 NSCLC was 32.3 µM; with KM12 colon it was 35.2 µM; with MCF7 breast it was over 100 µM; in the test with MDA-MB-435, 14.4 µM; with NCI-H460 lung it was over 100 µM; in the test on NCI-H522 lung it was over 100 µM. For the same compound, the TGI in the test on OVCAR-8 ovarian was 46.4 µM; in the test on SK-OV-3 ovarian, 99.7 µM; in the test on T-47D breast, over 100 µM.
Regarding `C[C@@H]1CC[C@H]2C(CN(C)CC3=C(C(F)(F)F)O[C@@H]4O[C@@]5(C)CC[C@H]6[C@H](C)CC[C@@H]3[C@@]46OO5)=C(C(F)(F)F)O[C@@H]3O[C@@]4(C)CC[C@@H]1[C@]32OO4`, the GI50 in the test with HOP-62 NSCLC is 34.4 µM; in the test with KM12 colon, 381 nM; with MCF7 breast it was 1560 nM; with MDA-MB-435, 549 nM; in the test on NCI-H460 lung it was 1.32 µM; with NCI-H522 lung, 2670 nM. Besides, the GI50 in the test with OVCAR-8 ovarian is 1.58 µM; in the test on SK-OV-3 ovarian, over 100 µM; in the test on T-47D breast, 236 nM. Besides, the TGI was over 100 µM in the test with HOP-62 NSCLC; 20.1 µM with KM12 colon; over 100 µM in the test with MCF7 breast; 40.2 µM with MDA-MB-435; over 56.9 µM in the test on NCI-H460 lung; over 53.6 µM in the test on OVCAR-8 ovarian. Besides, the TGI in the test on SK-OV-3 ovarian is over 100 µM; in the test on T-47D breast it was 39.7 µM.
With `COc1ccc(C(=O)C(CN(C)C)c2ccccc2)cc1` (stereo unspecified), the GI50 with HL-60(TB) leukemia is 5540 nM; in the test with HOP-62 NSCLC it was 10.9 µM; in the test with KM12 colon, 3980 nM; in the test on MCF7 breast it was 1900 nM; in the test with MDA-MB-435, 2830 nM; in the test on NCI-H460 lung, 6.13 µM. Further, the GI50 was 3.46 µM in the test with OVCAR-8 ovarian, 27.7 µM in the test on SK-OV-3 ovarian and 2750 nM in the test with T-47D breast. Also, the TGI was over 100 µM in the test on HL-60(TB) leukemia; 23.6 µM with HOP-62 NSCLC; 13.6 µM in the test on KM12 colon; 5.98 µM in the test on MCF7 breast; 11.4 µM with MDA-MB-435; 19.2 µM with NCI-H460 lung. Further, the TGI with OVCAR-8 ovarian was determined as 12.5 µM; in the test with SK-OV-3 ovarian it was 77.2 µM; with T-47D breast, 9.01 µM.
For the compound `N#CCCCCCn1c2ccccc2c2c3c(c4c5ccccc5[nH]c4c21)C(=O)N(O)C3=O`, the GI50 with HL-60(TB) leukemia was 1480 nM; in the test on HOP-62 NSCLC, 0.468 µM; in the test with KM12 colon, 1370 nM; in the test on MDA-MB-435, 1190 nM; in the test with NCI-H460 lung it was 1.19 µM; in the test on NCI-H522 lung, 164 nM. The GI50 in the test on SK-OV-3 ovarian is 2.55 µM; with T-47D breast, 455 nM. The TGI worked out at 3.5 µM with HL-60(TB) leukemia; 2.79 µM in the test on HOP-62 NSCLC; 3.39 µM with KM12 colon; 3.09 µM in the test on MDA-MB-435; 4.96 µM in the test on NCI-H460 lung; 0.411 µM in the test on NCI-H522 lung. In addition, the TGI with SK-OV-3 ovarian came to 19.4 µM; in the test on T-47D breast it was 8.65 µM.
On to `O=C(c1nc2ccccc2[nH]1)C1C(c2cccc([N+](=O)[O-])c2)C2CC3CCCCC3N2[C@@]12C(=O)Nc1cc(Cl)ccc12` (stereo partly specified), for which the GI50 in the test on HL-60(TB) leukemia is 2580 nM; with HOP-62 NSCLC it was 1.86 µM; in the test on KM12 colon, 1630 nM; with MCF7 breast it was 1950 nM; in the test on MDA-MB-435, 1650 nM; in the test with NCI-H522 lung, 1670 nM. The GI50 was 2.68 µM in the test on OVCAR-8 ovarian and 998 nM in the test with T-47D breast. Further, the concentration for total growth inhibition (TGI) in the test with HL-60(TB) leukemia is 6.67 µM; in the test with HOP-62 NSCLC, 4.62 µM; in the test with KM12 colon, 3.5 µM; with MCF7 breast, 7.11 µM; with MDA-MB-435 it was 3.19 µM; in the test on NCI-H522 lung it was 4.38 µM. For the same compound, the TGI was 20.1 µM in the test on OVCAR-8 ovarian and over 100 µM in the test with T-47D breast.
For `NC(=S)c1cn(C2OC(CO)C(O)C2O)c2ncnc(N)c12` (stereo unspecified), the GI50 was 180 nM with HL-60(TB) leukemia; 0.065 µM with HOP-62 NSCLC; 26.2 nM with KM12 colon; 67.3 nM in the test with MCF7 breast; 63.3 nM in the test on MDA-MB-435; 0.212 µM in the test with NCI-H460 lung. Also, the GI50 in the test with NCI-H522 lung was 168 nM; in the test on OVCAR-8 ovarian, 0.209 µM; in the test with T-47D breast, 19.5 nM. Also, the TGI in the test on HL-60(TB) leukemia came to 26.7 µM; in the test with HOP-62 NSCLC, 1.95 µM; in the test on KM12 colon, 0.205 µM; in the test on MCF7 breast, 0.303 µM; in the test with MDA-MB-435, 0.262 µM; in the test on NCI-H460 lung it was 8.15 µM. In addition, the TGI was 0.554 µM in the test with NCI-H522 lung and 0.0929 µM in the test on T-47D breast.

The values are drawn from PubChem BioAssay (NCI).
